Experimental data taken from ChEMBL document CHEMBL3751798, “Targeting cancer cells with oleanolic and ursolic acid derived hydroxamates” (Bioorg Med Chem Lett, 2016).
pEC50: −log10 of the molar value.

test system: HT-29; experiment: Cytotoxicity against human HT-29 cells after 96 hrs by SRB assay; format: functional, cell-based; conditions: HT-29, 96 h

SMILES	pEC50
C[C@H]1[C@H](C)CC[C@]2(C(=O)N(C)O)CC[C@]3(C)C(=CC[C@@H]4[C@@]5(C)CCC(=O)C(C)(C)[C@@H]5CC[C@]43C)[C@H]12	4.89
CC(=O)O[C@H]1CC[C@]2(C)[C@H]3CC=C4[C@@H]5[C@@H](C)[C@H](C)CC[C@]5(C(=O)NO)CC[C@@]4(C)[C@]3(C)CC[C@H]2C1(C)C	5.46
CONC(=O)[C@]12CCC(C)(C)C[C@H]1C1=CC[C@@H]3[C@@]4(C)CCC(=O)C(C)(C)[C@@H]4CC[C@@]3(C)[C@]1(C)CC2	4.73
CC(=O)O[C@H]1CC[C@]2(C)[C@H]3CC=C4[C@@H]5CC(C)(C)CC[C@]5(C(=O)N(C)O)CC[C@@]4(C)[C@]3(C)CC[C@H]2C1(C)C	4.97
CC(=O)O[C@H]1CC[C@]2(C)[C@H]3CC=C4[C@@H]5CC(C)(C)CC[C@]5(C(=O)NO)CC[C@@]4(C)[C@]3(C)CC[C@H]2C1(C)C	5.31
CON(C)C(=O)[C@]12CCC(C)(C)C[C@H]1C1=CC[C@@H]3[C@@]4(C)CC[C@H](OC(C)=O)C(C)(C)[C@@H]4CC[C@@]3(C)[C@]1(C)CC2	4.88

test system: FaDu; experiment: Cytotoxicity against human FADU cells after 96 hrs by SRB assay; format: functional, cell-based; conditions: not given

SMILES	pEC50
C[C@H]1[C@H](C)CC[C@]2(C(=O)N(C)O)CC[C@]3(C)C(=CC[C@@H]4[C@@]5(C)CCC(=O)C(C)(C)[C@@H]5CC[C@]43C)[C@H]12	4.75
CC(=O)O[C@H]1CC[C@]2(C)[C@H]3CC=C4[C@@H]5[C@@H](C)[C@H](C)CC[C@]5(C(=O)NO)CC[C@@]4(C)[C@]3(C)CC[C@H]2C1(C)C	5.19
CONC(=O)[C@]12CCC(C)(C)C[C@H]1C1=CC[C@@H]3[C@@]4(C)CCC(=O)C(C)(C)[C@@H]4CC[C@@]3(C)[C@]1(C)CC2	4.64
CC(=O)O[C@H]1CC[C@]2(C)[C@H]3CC=C4[C@@H]5CC(C)(C)CC[C@]5(C(=O)N(C)O)CC[C@@]4(C)[C@]3(C)CC[C@H]2C1(C)C	4.92
CC(=O)O[C@H]1CC[C@]2(C)[C@H]3CC=C4[C@@H]5CC(C)(C)CC[C@]5(C(=O)NO)CC[C@@]4(C)[C@]3(C)CC[C@H]2C1(C)C	4.97
CON(C)C(=O)[C@]12CCC(C)(C)C[C@H]1C1=CC[C@@H]3[C@@]4(C)CC[C@H](OC(C)=O)C(C)(C)[C@@H]4CC[C@@]3(C)[C@]1(C)CC2	5.03

test system: A2780; experiment: Cytotoxicity against human A2780 cells after 96 hrs by SRB assay; format: functional, cell-based; conditions: A2780, 96 h

SMILES	pEC50
C[C@H]1[C@H](C)CC[C@]2(C(=O)N(C)O)CC[C@]3(C)C(=CC[C@@H]4[C@@]5(C)CCC(=O)C(C)(C)[C@@H]5CC[C@]43C)[C@H]12	5.40
CC(=O)O[C@H]1CC[C@]2(C)[C@H]3CC=C4[C@@H]5[C@@H](C)[C@H](C)CC[C@]5(C(=O)NO)CC[C@@]4(C)[C@]3(C)CC[C@H]2C1(C)C	5.57
CONC(=O)[C@]12CCC(C)(C)C[C@H]1C1=CC[C@@H]3[C@@]4(C)CCC(=O)C(C)(C)[C@@H]4CC[C@@]3(C)[C@]1(C)CC2	5.21
CC(=O)O[C@H]1CC[C@]2(C)[C@H]3CC=C4[C@@H]5CC(C)(C)CC[C@]5(C(=O)N(C)O)CC[C@@]4(C)[C@]3(C)CC[C@H]2C1(C)C	5.12
CC(=O)O[C@H]1CC[C@]2(C)[C@H]3CC=C4[C@@H]5CC(C)(C)CC[C@]5(C(=O)NO)CC[C@@]4(C)[C@]3(C)CC[C@H]2C1(C)C	5.59
CON(C)C(=O)[C@]12CCC(C)(C)C[C@H]1C1=CC[C@@H]3[C@@]4(C)CC[C@H](OC(C)=O)C(C)(C)[C@@H]4CC[C@@]3(C)[C@]1(C)CC2	5.17

test system: A549; experiment: Cytotoxicity against human A549 cells after 96 hrs by SRB assay; format: functional, cell-based; conditions: A549, 96 h

SMILES	pEC50
C[C@H]1[C@H](C)CC[C@]2(C(=O)N(C)O)CC[C@]3(C)C(=CC[C@@H]4[C@@]5(C)CCC(=O)C(C)(C)[C@@H]5CC[C@]43C)[C@H]12	5.03
CC(=O)O[C@H]1CC[C@]2(C)[C@H]3CC=C4[C@@H]5[C@@H](C)[C@H](C)CC[C@]5(C(=O)NO)CC[C@@]4(C)[C@]3(C)CC[C@H]2C1(C)C	5.41
CONC(=O)[C@]12CCC(C)(C)C[C@H]1C1=CC[C@@H]3[C@@]4(C)CCC(=O)C(C)(C)[C@@H]4CC[C@@]3(C)[C@]1(C)CC2	5.32
CC(=O)O[C@H]1CC[C@]2(C)[C@H]3CC=C4[C@@H]5CC(C)(C)CC[C@]5(C(=O)N(C)O)CC[C@@]4(C)[C@]3(C)CC[C@H]2C1(C)C	4.97
CC(=O)O[C@H]1CC[C@]2(C)[C@H]3CC=C4[C@@H]5CC(C)(C)CC[C@]5(C(=O)NO)CC[C@@]4(C)[C@]3(C)CC[C@H]2C1(C)C	5.51
CON(C)C(=O)[C@]12CCC(C)(C)C[C@H]1C1=CC[C@@H]3[C@@]4(C)CC[C@H](OC(C)=O)C(C)(C)[C@@H]4CC[C@@]3(C)[C@]1(C)CC2	4.75

test system: MCF7; experiment: Cytotoxicity against human MCF7 cells after 96 hrs by SRB assay; format: functional, cell-based; conditions: MCF7, 96 h

SMILES	pEC50
C[C@H]1[C@H](C)CC[C@]2(C(=O)N(C)O)CC[C@]3(C)C(=CC[C@@H]4[C@@]5(C)CCC(=O)C(C)(C)[C@@H]5CC[C@]43C)[C@H]12	4.75
CC(=O)O[C@H]1CC[C@]2(C)[C@H]3CC=C4[C@@H]5[C@@H](C)[C@H](C)CC[C@]5(C(=O)NO)CC[C@@]4(C)[C@]3(C)CC[C@H]2C1(C)C	5.48
CONC(=O)[C@]12CCC(C)(C)C[C@H]1C1=CC[C@@H]3[C@@]4(C)CCC(=O)C(C)(C)[C@@H]4CC[C@@]3(C)[C@]1(C)CC2	4.70
CC(=O)O[C@H]1CC[C@]2(C)[C@H]3CC=C4[C@@H]5CC(C)(C)CC[C@]5(C(=O)N(C)O)CC[C@@]4(C)[C@]3(C)CC[C@H]2C1(C)C	5.21
CC(=O)O[C@H]1CC[C@]2(C)[C@H]3CC=C4[C@@H]5CC(C)(C)CC[C@]5(C(=O)NO)CC[C@@]4(C)[C@]3(C)CC[C@H]2C1(C)C	5.02
CON(C)C(=O)[C@]12CCC(C)(C)C[C@H]1C1=CC[C@@H]3[C@@]4(C)CC[C@H](OC(C)=O)C(C)(C)[C@@H]4CC[C@@]3(C)[C@]1(C)CC2	5.12

test system: not listed separately; experiment: Cytotoxicity against human 518A2 cells after 96 hrs by SRB assay; format: functional, cell-based; conditions: 518A2, 96 h

SMILES	pEC50
C[C@H]1[C@H](C)CC[C@]2(C(=O)N(C)O)CC[C@]3(C)C(=CC[C@@H]4[C@@]5(C)CCC(=O)C(C)(C)[C@@H]5CC[C@]43C)[C@H]12	4.91
CC(=O)O[C@H]1CC[C@]2(C)[C@H]3CC=C4[C@@H]5[C@@H](C)[C@H](C)CC[C@]5(C(=O)NO)CC[C@@]4(C)[C@]3(C)CC[C@H]2C1(C)C	5.44
CONC(=O)[C@]12CCC(C)(C)C[C@H]1C1=CC[C@@H]3[C@@]4(C)CCC(=O)C(C)(C)[C@@H]4CC[C@@]3(C)[C@]1(C)CC2	4.75
CC(=O)O[C@H]1CC[C@]2(C)[C@H]3CC=C4[C@@H]5CC(C)(C)CC[C@]5(C(=O)N(C)O)CC[C@@]4(C)[C@]3(C)CC[C@H]2C1(C)C	5.03
CC(=O)O[C@H]1CC[C@]2(C)[C@H]3CC=C4[C@@H]5CC(C)(C)CC[C@]5(C(=O)NO)CC[C@@]4(C)[C@]3(C)CC[C@H]2C1(C)C	5.38
CON(C)C(=O)[C@]12CCC(C)(C)C[C@H]1C1=CC[C@@H]3[C@@]4(C)CC[C@H](OC(C)=O)C(C)(C)[C@@H]4CC[C@@]3(C)[C@]1(C)CC2	5.08

test system: not listed separately; experiment: Cytotoxicity against mouse NIH/3T3 cells after 96 hrs by SRB assay; format: cell-based; conditions: NIH3T3, 96 h

SMILES	pEC50
C[C@H]1[C@H](C)CC[C@]2(C(=O)N(C)O)CC[C@]3(C)C(=CC[C@@H]4[C@@]5(C)CCC(=O)C(C)(C)[C@@H]5CC[C@]43C)[C@H]12	4.98
CC(=O)O[C@H]1CC[C@]2(C)[C@H]3CC=C4[C@@H]5[C@@H](C)[C@H](C)CC[C@]5(C(=O)NO)CC[C@@]4(C)[C@]3(C)CC[C@H]2C1(C)C	5.60
CONC(=O)[C@]12CCC(C)(C)C[C@H]1C1=CC[C@@H]3[C@@]4(C)CCC(=O)C(C)(C)[C@@H]4CC[C@@]3(C)[C@]1(C)CC2	4.91
CC(=O)O[C@H]1CC[C@]2(C)[C@H]3CC=C4[C@@H]5CC(C)(C)CC[C@]5(C(=O)N(C)O)CC[C@@]4(C)[C@]3(C)CC[C@H]2C1(C)C	4.91
CC(=O)O[C@H]1CC[C@]2(C)[C@H]3CC=C4[C@@H]5CC(C)(C)CC[C@]5(C(=O)NO)CC[C@@]4(C)[C@]3(C)CC[C@H]2C1(C)C	5.59
CON(C)C(=O)[C@]12CCC(C)(C)C[C@H]1C1=CC[C@@H]3[C@@]4(C)CC[C@H](OC(C)=O)C(C)(C)[C@@H]4CC[C@@]3(C)[C@]1(C)CC2	4.88
